The source of these data is patent publication US6060608A, “Analogs of CC-1065 and the duocarmycins” (The Scripps Research Institute, priority 1999, dated 2000).

Molecules are shown by their SMILES. Read-outs that look alike come from different tables or passages of the source.

A short description of series [1]: Aqueous solvolysis reactivity followed by UV. Conditions: for half-life: read-out: solvolysis half-life t1/2 (converted). In kind it is physicochemical. How it is done:
The reactivity of 217-219 was assessed by following the solvolysis spectrophotometrically by UV at both pH 3 (50% CH3 OH-buffer, buffer=4:1:20 (v/v/v) 0.1 M citric acid, 0.2 M Na2 HPO4, H2 O) and pH 7 (1:1 H2 O--CH3 OH) measuring both the disappearance of the long-wavelength absorption band of the F2 CBI chromophore and the appearance of a short-wavelength absorption band attributable to the ring open products (FIG. 31).
Aqueous Solvolysis Reactivity. pH 3: N-BOC-CCBI (25, 100 μg) was dissolved in CH3 OH (1.5 mL) and mixed with pH 3 aqueous buffer (1.5 mL). The buffer contained 4:1:20 (v:v:v) 0.1 M citric acid, 0.2 M Na2 HPO4 and H2 O, respectively. The solvolysis solution was sealed and kept at 25° C. protected from light. The UV spectrum was measured at regular intervals every 2 h during the first day, every 12 h for another week, and every 24 h for an additional week. The decrease in the long-wavelength absorption at 322 nm and the increase in the short-wavelength absorption at 268 nm were monitored, FIG. 1.
pH 2: Samples of 25 (100 μg) and 26 (50 μg) were dissolved in CH3 OH (1.5 mL) and the solutions were mixed with aqueous buffer (pH 2.05, 1.5 mL). The buffer contained 4:1:20 (v:v:v) 1.0 M citric acid, 0.2 M Na2 HPO4, and H2 O, respectively. Immediately after mixing, the UV spectra of the solutions were measured against a reference solution containing CH3 OH (1.5 mL) and the aqueous buffer (1.5 mL) and these readings were used for the initial absorbance values. The solutions were stoppered, protected from the light, and allowed to stand at 25° C. UV spectra were recorded at regular intervals until constant values were obtained for the long and short wavelength absorbances. The solvolysis rate constants were determined from the slope of the lines obtained from linear least squares treatment of plots of ln[(Af -Ai)/(Af -A)] versus time using the short wavelength measurements for 25 and long wavelength measurements for 26).

The nature of series [2]: Solvolysis in THF-CH3OH with CF3SO3H. In kind it is physicochemical. Conditions: 20 equiv CH3OH, 0.1 equiv CF3SO3H. How it is done:
Solvolysis of N-BOC-CCBI in THF-CH3 OH. The solvolysis of N-BOC-CCBI (25) was carried out in THF with 20-500 equiv of CH3 OH in the presence of 0.1-0.25 equiv of CF3 SO3 H. The following is the procedure for the solvolysis of 25 in THF with 20 equiv of CH3 OH in the presence of CF3 SO3 H (0.1 equiv). A stock solution was prepared by addition of CF3 SO3 H (5.6 μL) and anhydrous CH3 OH (502 μL) to anhydrous THF (99.49 mL). A sample of 25 (100 μg) in a UV cell was dissolved in THF (1950 μL) and the THF stock solution (50 μL) which contained CF3 SO3 H (0.1 equiv) and CH3 OH (20 equiv) was added. The solvolysis solution was sealed and UV spectrum was measured with an automated cycle program at regular intervals (10 min/cycle). The decrease in the long wavelength absorption at 313 nm was monitored and the solvolysis was complete after 80 h.

Where [3] appears, read: pH 2 (buffer pH 2.05), CH3OH-buffer 1:1, 25° C.

In the case of `CC(C)(C)OC(=O)N1CC2CC23C1=CC(=O)c1ccc(C#N)cc13` (stereo not shown) [compound 25, N-(tert-Butyloxycarbonyl)-7-cyano-1,2,9,9a-tetrahydrocyclopropa[c]benz[e]indol-4-one], in series [1] (setting [3]), the “first order solvolysis rate constant” value was found to be 7.94e-06 s⁻¹ and the half-life is 24.2 h. Further, in series [1] (pH 3, 50% CH3OH-buffer), the “solvolysis rate constant k” value was 9.9e-07 s⁻¹ and the half-life is 213 h. Also, in series [2], the “solvolysis half-life t1/2” value came to 9.2 h, the solvolysis rate k came to 2e-05 s⁻¹ and the “time to complete solvolysis” value came out at 80 h.
